Among the data in US11873295B2, “Allosteric chromenone inhibitors of phosphoinositide 3-kinase (PI3K) for the treatment of disease” (Petra Pharma Corporation, priority 2021, dated 2024) are IC50 values, retold here.

In assay [1] the target is T1, human full length PIK3KA Wild-type (p110α/p85α complex) (Homo sapiens, UniProt P42336).
T1 construct: Recombinant, catalytically active human full length PIK3KA Wild-type and H1047R mutant were purchased as 1:1 complex; 6xHis (N); purchased EMD Millipore Sigma 14-602M
Put plainly: PI3K-alpha kinase (PIK3CA) biochemical activity, wild-type, ADP-Glo. The following applies: PI3K-α (PIK3CA) biochemical, Soy PI lipid substrate. The method in brief: (§1)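 Full-length His-p110α/p85α complex, wild-type or H1047R, 1–5 nM, preincubated with compound 1 h at 27 °C in HEPES pH 7.4, 25 mM MgCl2, 0.01% Triton X-100, 1% DMSO. Reaction with 20 μM ATP and 50 μM PIP2diC8 or soy PI at 27 °C to ~10% ATP conversion; ADP-Glo luminescence. IC50 from 10-point four-parameter logistic fit.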
Background: In ADP-Glo the light output rises with the ADP produced.

The subject of assay [2] is PI3K-α (PIK3CA) in MDA-MB-453 cells. Put plainly: PI3K-alpha kinase (PIK3CA) activity in vitro cell based assay, MDA-MB-453 cells, AlphaLisa SureFire. The following applies: Homo sapiens, MDA-MB-453, 3 h, 0% FBS, 3 hours treatment, relative IC50. The method, then: PI3K-Alpha Kinase (PIK3CA) Activity In Vitro Cell Based Assay and Determining IC50 Values for Inhibitors
The MDA-MB-453 (ATCC-HTB-131) cell line was obtained from the American Type Culture Collection (Manassas, VA). Cells were maintained in Dulbecco's Modified Eagle Media (DMEM, Gibco 11965-092) supplemented with 10% Fetal Bovine Serum, heat inactivated (FBS HI, Gibco 10082-147), 1× non-essential amino acids (NEAA, Gibco 11140-050), and 1 mM sodium pyruvate (Gibco 11360-070). Cultures were maintained in a humidified incubator at 37° C. under 5% CO2/95% air.
For compound testing in 0% FBS, MDA-MB-453 cells were seeded at a density of 1.5×10^4 cells per well in white 384-well plates in 20 μl of Minimum Essential Media (MEM) assay media with 1×NEAA, 1 mM sodium pyruvate, and 1 μg/mL human insulin (Sigma I9278). Compounds dissolved in 10 mM stock solutions in DMSO were serially diluted 1:3 in DMSO to generate a 10-point dilution series and plated using an acoustic liquid handler system (Echo 550 Series Liquid Handler, Labcyte). A 5× intermediate compound dilution plate in MEM with 1×NEAA and 1 mM sodium pyruvate (150 μM starting compound concentration in 1.5% DMSO) was then prepared. Five μl of the intermediate serially diluted compounds were added to the cell plate to final concentrations ranging from […] in 0.3% DMSO. 0.3% DMSO alone was used to establish the maximum (MAX) signal and GDC-0032 at a final concentration of 1 μM was used as a reference compound for the minimum (MIN) signal. After 3 hours treatment, the medium was removed, and the cells lysed in 10 μL of 1× SureFire Lysis buffer with shaking for 10 minutes at room temperature. The Acceptor Mix (Reaction Buffer 1+Reaction Buffer 2+Activation Buffer+SureFire Ultra Acceptor Beads) was prepared by diluting Activation buffer 25-fold in combined Reaction Buffer 1 and Reaction Buffer 2. The Acceptor beads were diluted 50-fold in the combined Reaction Buffers. Five μL of Acceptor Mix was added to each well, the plate was sealed and covered with foil and incubated for 1 hour at room temperature. The Donor Mix (dilution buffer+SureFire Ultra Donor Beads) was prepared by diluting Donor Beads 50-fold in dilution buffer. Five μL of the Donor Mix was added to each well and the plate sealed and covered with foil and incubated for 1 hour at room temperature in the dark. The plates were read on a Neo2 plate reader instrument from Biotek using standard AlphaLisa settings. Compounds were tested in duplicate and the average % inhibition at each compound concentration was used to generate a single dose response curve. The data were processed using the Genedata-Screener tool. Relative IC50 values were determined using luminescence units by calculating percent inhibition with respect to the in-plate “MIN” (GDC-0032 reference control) and “MAX” (DMSO) controls. The data was analyzed using a 4-parameter nonlinear logistic equation (four-parameter logistic concentration-response curve): Y=bottom+[(top−bottom)/1+(X/IC50)slope] where Y=% inhibition, X=concentration of inhibitor, bottom=minimum value of y attained by curve-fit, top=maximum value of y attained by curve-fit and slope=steepness of curve at the IC50. % Inhibition=[(signal at X−median Min)/(median Max−median Min)]×100 IC50: concentration of compound that reduces a given response (ligand binding, enzyme response) by 50%. Relative IC50: concentration giving half the compound's maximum response.
For IC50 values shown in Table B, “A” means IC50<50 nM; “B” means IC50 ranging between 50 nM and 100 nM; “C” means IC50 ranging between 100 nM and 500 nM; “D” means IC50>500 nM.

In assay [3] the target is T2, human full length PIK3KA H1047R mutant (p110α/p85α complex) (Homo sapiens, UniProt P42336, H1047R).
T2 construct: Recombinant, catalytically active human full length PIK3KA Wild-type and H1047R mutant were purchased as 1:1 complex; 6xHis (N); purchased EMD Millipore Sigma 14-792M
In words: PI3K-alpha kinase (PIK3CA) biochemical activity, H1047R mutant, ADP-Glo. The following applies: PI3K-α (PIK3CA) biochemical, H1047R mutant, Soy PI lipid substrate. The gist of the method: as §1

T2 sequence (P42336 whole entry H1047R): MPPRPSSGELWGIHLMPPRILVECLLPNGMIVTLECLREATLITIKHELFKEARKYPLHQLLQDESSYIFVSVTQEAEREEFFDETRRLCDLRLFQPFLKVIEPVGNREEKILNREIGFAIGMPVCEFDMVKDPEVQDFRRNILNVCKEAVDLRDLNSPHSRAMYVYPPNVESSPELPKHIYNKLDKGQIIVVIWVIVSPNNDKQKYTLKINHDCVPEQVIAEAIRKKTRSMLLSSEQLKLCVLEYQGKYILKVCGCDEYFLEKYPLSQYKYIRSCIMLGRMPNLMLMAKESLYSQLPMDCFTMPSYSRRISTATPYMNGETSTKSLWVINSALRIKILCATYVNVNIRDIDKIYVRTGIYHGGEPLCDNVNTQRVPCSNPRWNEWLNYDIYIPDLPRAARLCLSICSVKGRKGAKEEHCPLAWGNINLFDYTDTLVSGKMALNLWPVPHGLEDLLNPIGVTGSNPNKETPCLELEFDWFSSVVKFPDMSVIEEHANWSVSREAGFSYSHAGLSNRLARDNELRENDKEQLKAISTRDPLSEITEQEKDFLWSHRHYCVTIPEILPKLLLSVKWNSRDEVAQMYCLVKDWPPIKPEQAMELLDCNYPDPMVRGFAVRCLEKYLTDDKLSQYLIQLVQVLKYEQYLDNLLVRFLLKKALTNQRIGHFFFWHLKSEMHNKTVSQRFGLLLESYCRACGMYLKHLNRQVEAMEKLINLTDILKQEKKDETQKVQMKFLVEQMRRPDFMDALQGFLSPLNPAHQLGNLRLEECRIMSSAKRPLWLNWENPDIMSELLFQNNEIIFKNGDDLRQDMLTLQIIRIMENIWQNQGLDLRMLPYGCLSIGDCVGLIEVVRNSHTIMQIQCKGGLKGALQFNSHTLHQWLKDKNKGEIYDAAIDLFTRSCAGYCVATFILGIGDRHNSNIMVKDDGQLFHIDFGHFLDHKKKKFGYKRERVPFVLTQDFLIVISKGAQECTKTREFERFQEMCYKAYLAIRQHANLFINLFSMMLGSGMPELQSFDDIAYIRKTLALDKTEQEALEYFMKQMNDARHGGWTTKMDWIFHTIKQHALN
T2 sequence (P27986 whole entry partner): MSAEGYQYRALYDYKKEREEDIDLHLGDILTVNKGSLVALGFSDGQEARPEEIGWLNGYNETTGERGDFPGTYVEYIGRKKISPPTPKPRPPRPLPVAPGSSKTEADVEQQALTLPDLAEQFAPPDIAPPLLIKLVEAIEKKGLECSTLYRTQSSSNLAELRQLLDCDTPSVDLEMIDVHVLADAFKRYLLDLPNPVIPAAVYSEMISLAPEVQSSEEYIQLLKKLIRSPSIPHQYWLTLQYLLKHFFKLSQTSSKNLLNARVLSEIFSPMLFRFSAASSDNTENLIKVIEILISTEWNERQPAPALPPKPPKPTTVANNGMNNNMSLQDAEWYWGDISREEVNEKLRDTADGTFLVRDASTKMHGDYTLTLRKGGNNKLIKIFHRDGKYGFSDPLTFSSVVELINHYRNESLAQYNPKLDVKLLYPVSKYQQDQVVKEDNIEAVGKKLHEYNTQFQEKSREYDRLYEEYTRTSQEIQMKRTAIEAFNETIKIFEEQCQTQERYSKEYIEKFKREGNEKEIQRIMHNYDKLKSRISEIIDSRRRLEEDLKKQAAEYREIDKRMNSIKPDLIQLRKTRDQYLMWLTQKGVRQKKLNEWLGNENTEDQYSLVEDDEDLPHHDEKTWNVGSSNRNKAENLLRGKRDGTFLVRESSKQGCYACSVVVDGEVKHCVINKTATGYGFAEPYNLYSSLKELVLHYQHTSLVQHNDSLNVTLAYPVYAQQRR

Broadly, the IC50 is the concentration needed to halve the response being measured. Higher therefore signals lower potency. Take `Cc1cc([C@@H](C)Nc2ccccc2C(=O)O)c2oc(-c3ccccc3)c(C3COC3)c(=O)c2c1` [Example 112, 2-[[(1R)-1-[6-methyl-3-(oxetan-3-yl)-4-oxo-2-phenyl-chromen-8-yl]ethyl]amino]benzoic acid 2,2,2-trifluoroacetic acid]: the IC50 is 1000 to 5000 nM in assay [1], 50 to 100 nM in assay [2] and less than 500 nM in assay [3].
Consider `Cc1cc([C@@H](C)Nc2ccc(Cl)cc2C(=O)O)c2oc(-c3cccc(F)c3)c(C)c(=O)c2c1` [Example 145, 5-Chloro-2-[[(1R)-1-[2-(3-fluorophenyl)-3,6-dimethyl-4-oxo-chromen-8-yl]ethyl]amino]benzoic acid], for which the IC50 in assay [1] was 1000 to 5000 nM; in assay [2], less than 50 nM; in assay [3], less than 500 nM.
For `Cc1cc([C@@H](C)Nc2cccc(F)c2C(=O)O)c2oc(-c3ccccc3)c(C)c(=O)c2c1` [Example 69, 2-[[(1R)-1-(3,6-Dimethyl-4-oxo-2-phenyl-chromen-8-yl)ethyl]amino]-6-fluoro-benzoic acid], the IC50 in assay [1] is 500 to 1000 nM; in assay [2], less than 50 nM; in assay [3] it was less than 500 nM.
With `Cc1cc([C@@H](C)Nc2ccc(C#N)nc2C(=O)O)c2oc(-c3ccccc3)c(C)c(=O)c2c1` (single isomer, unassigned; isomer 1) [Example 159], the IC50 was 500 to 1000 nM in assay [1], less than 50 nM in assay [2] and less than 500 nM in assay [3].
Regarding `Cc1cc([C@@H](C)Nc2ncccc2C(=O)O)c2oc(-c3ccccc3)c(C)c(=O)c2c1` [Example 137, 2-[[(1R)-1-(3,6-Dimethyl-4-oxo-2-phenyl-chromen-8-yl)ethyl]amino]pyridine-3-carboxylic acid], the IC50 was 1000 to 5000 nM in assay [1], less than 50 nM in assay [2] and less than 500 nM in assay [3].
Take `Cc1cc([C@@H](C)Nc2ccc(C(F)(F)F)cc2C(=O)O)c2oc(-c3ccccc3)cc(=O)c2c1` [Example 33, 2-[[(1R)-1-(6-Methyl-4-oxo-2-phenyl-chromen-8-yl)ethyl]amino]-5-(trifluoromethyl)benzoic acid]: the values for the IC50 in assay [1], in assay [2] and in assay [3] were 5000 to 10000 nM, 100 to 500 nM and less than 500 nM, respectively.
As to `Cc1c(-c2ccccc2F)oc2c([C@@H](C)Nc3ccc(Cl)nc3C(=O)O)cc(C(F)(F)F)cc2c1=O` [Example 98, 6-Chloro-3-[[(1R)-1-[2-(2-fluorophenyl)-3-methyl-4-oxo-6-(trifluoromethyl)-chromen-8-yl]ethyl]amino]pyridine-2-carboxylic acid], the values for the IC50 in assay [1], in assay [2] and in assay [3] were 1000 to 5000 nM, less than 50 nM and less than 500 nM, respectively.
With `Cc1cc([C@@H](C)Nc2ccc(C)nc2C(=O)O)c2oc(-c3ccc(F)c(F)c3)c(C)c(=O)c2c1` [Example 124, 3-[[(1R)-1-[2-(3,4-Difluorophenyl)-3,6-dimethyl-4-oxo-chromen-8-yl]ethyl]amino]-6-methyl-pyridine-2-carboxylic acid], the figures for the IC50 in assay [1], in assay [2] and in assay [3] were 1000 to 5000 nM, less than 50 nM and less than 500 nM, respectively.
With `Cc1cc(C(C)Nc2ccccc2C(=O)O)c2oc(-c3ccc(N4CCCC4)cc3)cc(=O)c2c1` (single isomer, unassigned; isomer 2) [Example 55, 2-[1-[6-Methyl-4-oxo-2-(4-pyrrolidin-1-ylphenyl)chromen-8-yl]ethylamino]benzoic acid, Isomer 2], the results for the IC50 in assay [1], in assay [2] and in assay [3] were 1000 to 5000 nM, 100 to 500 nM and less than 500 nM, respectively.
Take `Cc1cc([C@@H](C)Nc2ccc(Cl)nc2C(=O)O)c2oc(-c3ccccc3F)c(C)c(=O)c2c1` [Example 114, 6-Chloro-3-[[(1R)-1-[2-(2-fluorophenyl)-3,6-dimethyl-4-oxo-chromen-8-yl]ethyl]amino]pyridine-2-carboxylic acid 2,2,2-trifluoroacetic acid]: the figures for the IC50 in assay [1], in assay [2] and in assay [3] were 1000 to 5000 nM, less than 50 nM and less than 500 nM, respectively.
For `Cc1cc([C@@H](C)Nc2cccnc2C(=O)O)c2oc(-c3ccccc3)c(C)c(=O)c2c1` [Example 36, 3-[[(1R)-1-(3,6-Dimethyl-4-oxo-2-phenyl-chromen-8-yl)ethyl]amino]-pyridine-2-carboxylic acid], the results for the IC50 in assay [1], in assay [2] and in assay [3] were 5000 to 10000 nM, 50 to 100 nM and 500 to 1000 nM, respectively.
Take `Cc1cc([C@@H](C)Nc2ccccc2C(=O)O)c2oc(-c3ccc(-c4ccn[nH]4)cc3)c(C)c(=O)c2c1` [Example 168, 2-[[(1R)-1-[3,6-Dimethyl-4-oxo-2-[4-(1H-pyrazol-5-yl)phenyl]chromen-8-yl]ethyl]amino]benzoic acid]: the results for the IC50 in assay [1], in assay [2] and in assay [3] were 500 to 1000 nM, less than 50 nM and less than 500 nM, respectively.
For the compound `Cc1cc([C@@H](C)Nc2ccccc2C(=O)O)c2oc(-c3cccc(C(F)F)c3)c(C)c(=O)c2c1` [Example 73, 2-[[(1R)-1-[2-[3-(Difluoromethyl)phenyl]-3,6-dimethyl-4-oxo-chromen-8-yl]ethyl]amino]benzoic acid 2,2,2-trifluoroacetic acid], the figures for the IC50 in assay [1], in assay [2] and in assay [3] were more than 10000 nM, less than 50 nM and less than 500 nM, respectively.
With `Cc1cc(C(C)Nc2ccc(Cl)nc2C(=O)O)c2oc(-c3ccccc3)c(I)c(=O)c2c1` (stereo not drawn) [Example 140, 6-Chloro-3-[1-(3-iodo-6-methyl-4-oxo-2-phenyl-chromen-8-yl)ethylamino]pyridine-2-carboxylic acid 2,2,2-trifluoroacetic acid], the IC50 in assay [1] was 1000 to 5000 nM; in assay [2], less than 50 nM; in assay [3], less than 500 nM.
`Cc1cc([C@@H](C)Nc2ccccc2C(=O)O)c2oc(-c3ccccc3)c(C(F)(F)F)c(=O)c2c1` [Example 70, 2-[[(1R)-1-[6-Methyl-4-oxo-2-phenyl-3-(trifluoromethyl)-chromen-8-yl]ethyl]amino]benzoic acid 2,2,2-trifluoroacetic acid]: the IC50 in assay [1] was 1000 to 5000 nM; in assay [2] it was less than 50 nM; in assay [3] it was less than 500 nM.
As to `Cc1cc([C@@H](C)Nc2ccccc2C(=O)O)c2oc(-c3ccccc3C#N)cc(=O)c2c1` [Example 15, 2-[[(1R)-1-[2-(2-Cyanophenyl)-6-methyl-4-oxo-chromen-8-yl]ethyl]amino]benzoic acid], the values for the IC50 in assay [1], in assay [2] and in assay [3] were 5000 to 10000 nM, less than 50 nM and less than 500 nM, respectively.
Regarding `Cc1cc([C@@H](C)Nc2ccccc2C(=O)O)c2oc(-c3ccccc3C)cc(=O)c2c1` [Example 14, 2-[[(1R)-1-[6-Methyl-2-(o-tolyl)-4-oxo-chromen-8-yl]ethyl]amino]benzoic acid], the IC50 was more than 10000 nM in assay [1], less than 50 nM in assay [2] and less than 500 nM in assay [3].
